From patent publication US9688637B2, “3-amidobenzamides and uses thereof for increasing cellular levels of A3G and other A3 family members” (Northwestern University, priority 2014, dated 2017)

Tests used:
[1] = tested on: 293T cells; assay: Cellular cytotoxicity by counting cells after 48 hrs with compound vs DMSO; assay type: cell-based; conditions: 48 hrs; for Cytotoxicity: Cell Proliferation Blocked at: concentration at which proliferation was blocked
Protocol: (§1) To screen compounds that can boost A3G levels, 293T cells (25,000 cells per well in 96-well plate) stably expressing A3G-Luc protein or A3G-Luc/Vif proteins were plated. After 24 hrs post plating culture medium was replaced with 100 μl of new medium containing either DMSO as a control or various compounds (10 μM concentration). After 48 hrs of incubation with compounds culture medium was removed from each well and replaced with 100 μl of Britelite Plus luciferase assay substrate (PerkinElmer). Following 5 min. of incubation at room temperature, 75 μl of each cell lysate was transferred to a 96-well OptiPlate 96 (PerkinElmer) and luminescence was measured in a VICTOR X2 Multilabel Reader (PerkinElmer). Relative activity of compounds for their boosting capability A3G-Luc activity was calculated by plotting DMSO-treated A3G-Luc or A3G-Luc/Vif cells as 100%. Cellular cytotoxicity was measured by counting number of cells after 48 hrs of incubation with compounds compared to DMSO treated cells.

[2] = tested on: A3G-Luc; assay: A3G-Luc luciferase screen in 293T cells stably expressing A3G-Luc; assay type: cell-based, human; conditions: 10 μM, 48 hrs, DMSO = 100%
Description: This background led to construction of cell lines to use in a search for compounds that might boost levels of A3s in the HIV target cells of the majority of HIV-infected persons who are non-controllers. The goal is to test a strategy of using such a booster in acute/early infection to prevent the hypothesized decrease of A3G and related A3s in an effort to increase “control” in persons lacking HLA B57/27-associated control. […] 293T and TZM-bl cells were maintained in DMEM (containing 4.5 g/liter glucose, L-glutamine, and sodium pyruvate) medium plus 10% fetal bovine serum, 50 IU/ml penicillin, and 50 μg/ml streptomycin at 37° C. and 5% CO2 throughout the experiments. […]. After collecting viral supernatant, 293T cells were infected with viral particles harboring the A3G-Luc expressing vector and selected with puromycin (0.75 μg/ml) for three days. Ten single cell clones of stable cells were isolated and tested for expression of A3G-Luc protein by both immunoblotting using antibody against A3G and measuring luciferase activity. Expressions in cell lines used for subsequent experiments are depicted in FIG. 2, upper panel. The A3G-Luc fusion protein was sensitive to Vif-mediated degradation (FIG. 3). Similar cells lines stably expressing A3F were constructed with the same methods (not shown).
as §1, with “After 24 hrs post plating culture medium was replaced with 100 μl of new medium containing either DMSO as a control or various compounds (10 μM concentration).” left out

[3] = tested on: Wild-type HIV-1; assay: A3G-mediated restriction of wild-type HIV-1; virus from 293T stably expressing A3G, TZM-bl readout; assay type: cell-based; conditions: Human immunodeficiency virus 1, HEK-293T, read-out: A3G-mediated Restriction by Compounds on Wild-type HIV-1 (% of HIV replication relative to DMSO treated Control)
Protocol: (§2) To test the effect of compounds shown to boost A3G-Luc levels in our screening systems on inhibition of wild-type HIV-1 replication by A3G or A3F, 293T cell lines stably expressing A3G or A3F were plated (750,000 cells per well in 6-well plate). At 24 hrs post plating, 1.5 μg of a wild-type (Vif-positive) HIV-1 proviral vector, NL4.3, was transfected into the 293T stable cell lines expressing either A3G or A3F. At 4 hrs post transfection, either DMSO as a control or an individual compound from series described below was added into the culture medium at a 10 μM concentration. At 1 day post transfection, supernatant fluids containing viral particles were filtered through […] filter to remove cellular debris. To test the effect of compound on HIV-1 replication, TZM-bl indicator cells were plated at a density of 10,000 cells/well in a 96 well culture plate 24 hrs prior to infection. TZM-bl indicator cells express luciferase gene under the control of HIV LTR promoter and are routinely used to measure HIV-1 replication capability. On the day of infection, the culture medium was removed and the cells inoculated with equal amount of HIV-1 particles in triplicate with 100 μl of viral supernatants in culture medium containing 20 μg/ml DEAE-dextran. After 24 hrs of incubation, culture medium was removed from each well and replaced with 100 μl of Britelite Plus luciferase assay substrate. Following 5 min. of incubation at room temperature, 75 μl of each cell lysate was transferred to a 96-well OptiPlate 96 and luminescence was measured in a VICTOR X2 Multilabel Reader as described above. Relative infectivity was calculated by plotting luciferase activity from viral particle from DMSO treated A3G or A3F cell lines as 100%. We only tested effect A3F- or A3G mediated restriction of HIV-1 replication by compounds boosting luciferase activity by more than 160% compared to DMSO control sample.

[4] = tested on: A3G-Luc/Vif; assay: A3G-Luc/Vif luciferase screen in 293T cells stably co-expressing A3G-Luc and HIV-1 Vif; assay type: cell-based, human; conditions: 10 μM, 48 hrs, DMSO = 100%
Protocol: FIG. 6. 293T cell clone #6 stably co-expressing A3G-Luciferase fusion protein together with HIV-1 Vif was used. Small molecule compounds were tested for their effects on stability of A3G and inhibition of Vif activity against A3G by measuring luciferase activity, relative to treatment with control DMSO only. The relative % luciferase activity was higher after treatment with NU compounds than DMSO.
[…]. After sorting, expression of both A3G-Luc and Vif was confirmed by immunoblotting using antibody against both A3G and Vif.
as §1

[5] = tested on: Wild-type HIV-1; assay: A3F-mediated restriction of wild-type HIV-1; virus from 293T stably expressing A3F, TZM-bl readout; assay type: cell-based; conditions: Human immunodeficiency virus 1, HEK-293T, read-out: A3F-mediated Restriction by Compounds on Wild-type HIV-1 (% of HIV replication relative to DMSO treated Control)
Protocol: as §2

SMILES | Cytotoxicity: Cell Death at ([1]; concentration at which cell death was seen) | A3G-Luc Activity (% of Relative Light Units compared to DMSO treated control) [2] | Cytotoxicity: Cell Proliferation Blocked at [1] | activity at 10 µM [3] | Vif-A3G-Luc Activity (% of RLUs compared to DMSO treated control) [4] | activity at 10 µM [5]
COc1ccc(C(=O)Nc2cc(OC)c(OC)c(OC)c2)cc1N [NU-49] | Cell Death at 10 μM |  |  |  |  | 
CC(C)(C)OC(=O)NCCOCCOc1ccc(C(=O)Nc2ccc(Cl)c(Cl)c2)cc1N [NU-124] |  | 25% | Cell Proliferation Blocked at 10 μM |  |  | 
CC(C)C(=O)Nc1cc(C(=O)Nc2ccc(Cl)c(Cl)c2)ccc1OCCOCCNC(=O)OC(C)(C)C [NU-125] |  | 25% | Cell Proliferation Blocked at 10 μM |  |  | 
CC(C)(C)OC(=O)NCCOCCOc1ccc(C(=O)Nc2ccc(Cl)c(Cl)c2)cc1NC(=O)CC1CC1 [NU-126] |  | 4.8% | Cell Proliferation Blocked at 10 μM |  |  | 
CC(C)C(=O)Nc1cc(C(=O)Nc2ccc(Cl)c(Cl)c2)ccc1OCCOCCNC(=O)CCCCC1SC[C@@H]2NC(=O)N[C@H]12 (some centres unmarked) [NU-127] |  | 68% | Cell Proliferation Blocked at 10 μM |  |  | 
O=C(CCCCC1SC[C@@H]2NC(=O)N[C@H]12)NCCOCCOc1ccc(C(=O)Nc2ccc(Cl)c(Cl)c2)cc1NC(=O)CC1CC1 (some centres unmarked) [NU-128] |  | 141% |  | 62% |  | 
COc1ccc(C(=O)Nc2ccc(Cl)c(Cl)c2)cc1NC(=O)C(C)(C)C [NU-458] |  | 189% |  | 54% | 123% | 45%
COC(=O)Nc1cc(C(=O)Nc2ccc(Cl)c(Cl)c2)ccc1OC [NU-460] |  | 254% |  | 34% | 119% | 34%
COCC(=O)Nc1cc(C(=O)Nc2ccc(Cl)c(Cl)c2)ccc1OC [NU-462] |  | 282% |  | 62% | 170% | 53%
COCCC(=O)Nc1cc(C(=O)Nc2ccc(Cl)c(Cl)c2)ccc1OC [NU-463] |  | 287% |  | 64% | 178% | 67%
COc1ccc(C(=O)Nc2ccc(Cl)c(Cl)c2)cc1NC(=O)C1CCCO1 (centres unmarked) [NU-464] |  | 288% |  | 77% | 170% | 77%
COc1ccc(C(=O)Nc2ccc(Cl)c(Cl)c2)cc1NC(=O)C1CC1C (centres unmarked) [NU-465] |  | 193% |  | 47% | 106% | 53%
COc1ccc(C(=O)Nc2ccc(Cl)c(Cl)c2)cc1NS(C)(=O)=O [NU-467] |  | 194% |  | 79% | 146% | 64%
COc1ccc(C(=O)Nc2ccc(Cl)c(Cl)c2)cc1NS(=O)(=O)C(C)C [NU-468] |  | 213% |  | 58% | 147% | 48%
COc1ccc(C(=O)Nc2ccc(Cl)c(Cl)c2)cc1NC(=O)CN(C)C [NU-471] |  | 238% |  | 66% | 175% | 65%
COc1ccc(C(=O)Nc2ccc(Cl)c(Cl)c2)cc1NC(=O)N(C)C [NU-472] |  | 238% |  | 61% | 146% | 49%
COc1ccc(C(=O)Nc2ccc(F)cc2)cc1NC(=O)C(C)C [NU-564] |  | 162% |  | 72% | 102% | 
CCOc1ccc(C(=O)Nc2ccc(Cl)c(Cl)c2)cc1NC(=O)C1CCC1 [NU-612] |  | 202% |  | 81% | 178% | 96%
CCOc1ccc(C(=O)Nc2ccc(Cl)c(Cl)c2)cc1NC(=O)CC1CC1 [NU-613] |  | 186% |  | 98% | 158% | 85%
COCCOc1ccc(C(=O)Nc2ccc(Cl)c(Cl)c2)cc1NC(=O)C1CCC1 [NU-616] |  | 171% |  | 95% | 152% | 
COCCOc1ccc(C(=O)Nc2ccc(Cl)c(Cl)c2)cc1NC(=O)CC1CC1 [NU-617] |  | 191% |  | 74% | 182% | 
